Consider 24 compounds from patent US10660877B2 (BRISTOL-MYERS SQUIBB COMPANY, priority 2016, dated 2020).

The structures appear in SMILES notation.

In one test the target is human TLR9 (Homo sapiens (Human), UniProt Q9NR96). Briefly: TLR9 inhibition reporter assay (HEK-Blue cells, SEAP reporter, ODN2006 stimulation).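 Further: compounds tested over 0.05 nM to 50 µM, 22 h incubation, inhibition taken as SEAP signal drop from agonist plus DMSO wells toward a known inhibitor control.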 As to conditions: read-out: TLR9 IC50, HEK-Blue cells overexpressing human TLR9, ODN2006 5 nM. (A reporter such as luciferase makes a cellular process visible.)
Chain of human TLR9 (Q9NR96 26-1032): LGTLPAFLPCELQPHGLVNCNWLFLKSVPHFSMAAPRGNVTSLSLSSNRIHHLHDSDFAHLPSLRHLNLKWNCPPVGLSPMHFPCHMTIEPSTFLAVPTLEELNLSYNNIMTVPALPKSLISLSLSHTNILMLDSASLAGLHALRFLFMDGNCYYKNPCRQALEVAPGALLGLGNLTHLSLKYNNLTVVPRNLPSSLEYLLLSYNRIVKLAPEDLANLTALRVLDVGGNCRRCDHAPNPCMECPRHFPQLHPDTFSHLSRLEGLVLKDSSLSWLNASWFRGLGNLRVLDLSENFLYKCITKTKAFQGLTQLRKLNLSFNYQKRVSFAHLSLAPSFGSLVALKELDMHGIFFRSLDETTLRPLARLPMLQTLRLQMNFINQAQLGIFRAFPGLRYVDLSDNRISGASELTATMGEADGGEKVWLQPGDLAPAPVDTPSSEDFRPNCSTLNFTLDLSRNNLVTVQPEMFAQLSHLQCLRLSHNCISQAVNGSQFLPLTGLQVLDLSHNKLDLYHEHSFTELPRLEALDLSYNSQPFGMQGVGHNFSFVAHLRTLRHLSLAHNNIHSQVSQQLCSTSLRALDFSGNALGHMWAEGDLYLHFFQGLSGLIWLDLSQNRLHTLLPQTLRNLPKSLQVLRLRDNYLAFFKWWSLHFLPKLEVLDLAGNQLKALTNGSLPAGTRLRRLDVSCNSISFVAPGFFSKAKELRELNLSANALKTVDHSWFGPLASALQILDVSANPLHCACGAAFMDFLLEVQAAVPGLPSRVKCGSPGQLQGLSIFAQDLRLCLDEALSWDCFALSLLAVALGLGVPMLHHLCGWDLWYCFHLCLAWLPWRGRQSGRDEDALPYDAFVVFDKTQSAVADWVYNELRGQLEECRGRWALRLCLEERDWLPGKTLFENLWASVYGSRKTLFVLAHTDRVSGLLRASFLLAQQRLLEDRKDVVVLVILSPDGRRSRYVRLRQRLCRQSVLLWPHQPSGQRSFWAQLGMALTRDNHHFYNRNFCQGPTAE
The next test deals with human TLR7 (Homo sapiens (Human), UniProt Q9NYK1). Briefly: TLR7 inhibition reporter assay (HEK-Blue cells, SEAP reporter, gardiquimod stimulation). The class given is cell-based. As to conditions: HEK-Blue cells overexpressing human TLR7, gardiquimod 7.5 μM.
Chain of human TLR7 (Q9NYK1 27-1049): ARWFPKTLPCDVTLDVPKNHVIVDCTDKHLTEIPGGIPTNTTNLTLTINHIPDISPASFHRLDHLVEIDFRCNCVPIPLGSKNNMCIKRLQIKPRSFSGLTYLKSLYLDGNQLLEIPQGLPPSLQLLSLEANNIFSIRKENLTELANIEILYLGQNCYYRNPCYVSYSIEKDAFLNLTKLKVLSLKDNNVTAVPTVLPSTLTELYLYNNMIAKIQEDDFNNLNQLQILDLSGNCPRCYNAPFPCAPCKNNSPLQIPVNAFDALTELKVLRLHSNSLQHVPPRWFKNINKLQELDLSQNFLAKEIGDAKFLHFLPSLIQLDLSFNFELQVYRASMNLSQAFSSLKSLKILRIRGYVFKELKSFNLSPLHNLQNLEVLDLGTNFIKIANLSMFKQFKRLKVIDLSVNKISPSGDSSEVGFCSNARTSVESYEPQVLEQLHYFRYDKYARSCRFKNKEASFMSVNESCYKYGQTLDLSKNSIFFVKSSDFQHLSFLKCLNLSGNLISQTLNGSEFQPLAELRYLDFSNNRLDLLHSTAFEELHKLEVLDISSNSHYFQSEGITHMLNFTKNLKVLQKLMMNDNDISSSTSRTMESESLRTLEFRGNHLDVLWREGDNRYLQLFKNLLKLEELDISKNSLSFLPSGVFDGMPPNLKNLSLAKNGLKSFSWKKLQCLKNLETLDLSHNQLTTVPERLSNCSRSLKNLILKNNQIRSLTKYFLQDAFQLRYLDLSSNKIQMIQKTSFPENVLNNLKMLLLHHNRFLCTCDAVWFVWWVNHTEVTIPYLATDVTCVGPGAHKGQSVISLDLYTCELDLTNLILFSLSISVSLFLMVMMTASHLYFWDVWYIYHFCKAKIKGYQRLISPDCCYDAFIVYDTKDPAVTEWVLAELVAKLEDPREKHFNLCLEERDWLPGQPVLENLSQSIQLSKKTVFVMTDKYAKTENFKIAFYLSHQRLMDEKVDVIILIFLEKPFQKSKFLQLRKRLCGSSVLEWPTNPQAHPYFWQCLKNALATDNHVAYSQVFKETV
The target of a further test is human TLR8 (Homo sapiens (Human), UniProt Q9NR97). Briefly: TLR8 inhibition reporter assay (HEK-Blue cells, SEAP reporter, R848 stimulation).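 Further: compounds tested from 0.05 nM to 50 µM, 22 h at 37 °C, SEAP measured with HEK-Blue Detection, inhibition relative to agonist plus DMSO versus a known inhibitor.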 Conditions: read-out: TLR8 IC50, HEK-Blue cells overexpressing human TLR8, R848 15.9 μM.
Chain of human TLR8 (Q9NR97 27-1041): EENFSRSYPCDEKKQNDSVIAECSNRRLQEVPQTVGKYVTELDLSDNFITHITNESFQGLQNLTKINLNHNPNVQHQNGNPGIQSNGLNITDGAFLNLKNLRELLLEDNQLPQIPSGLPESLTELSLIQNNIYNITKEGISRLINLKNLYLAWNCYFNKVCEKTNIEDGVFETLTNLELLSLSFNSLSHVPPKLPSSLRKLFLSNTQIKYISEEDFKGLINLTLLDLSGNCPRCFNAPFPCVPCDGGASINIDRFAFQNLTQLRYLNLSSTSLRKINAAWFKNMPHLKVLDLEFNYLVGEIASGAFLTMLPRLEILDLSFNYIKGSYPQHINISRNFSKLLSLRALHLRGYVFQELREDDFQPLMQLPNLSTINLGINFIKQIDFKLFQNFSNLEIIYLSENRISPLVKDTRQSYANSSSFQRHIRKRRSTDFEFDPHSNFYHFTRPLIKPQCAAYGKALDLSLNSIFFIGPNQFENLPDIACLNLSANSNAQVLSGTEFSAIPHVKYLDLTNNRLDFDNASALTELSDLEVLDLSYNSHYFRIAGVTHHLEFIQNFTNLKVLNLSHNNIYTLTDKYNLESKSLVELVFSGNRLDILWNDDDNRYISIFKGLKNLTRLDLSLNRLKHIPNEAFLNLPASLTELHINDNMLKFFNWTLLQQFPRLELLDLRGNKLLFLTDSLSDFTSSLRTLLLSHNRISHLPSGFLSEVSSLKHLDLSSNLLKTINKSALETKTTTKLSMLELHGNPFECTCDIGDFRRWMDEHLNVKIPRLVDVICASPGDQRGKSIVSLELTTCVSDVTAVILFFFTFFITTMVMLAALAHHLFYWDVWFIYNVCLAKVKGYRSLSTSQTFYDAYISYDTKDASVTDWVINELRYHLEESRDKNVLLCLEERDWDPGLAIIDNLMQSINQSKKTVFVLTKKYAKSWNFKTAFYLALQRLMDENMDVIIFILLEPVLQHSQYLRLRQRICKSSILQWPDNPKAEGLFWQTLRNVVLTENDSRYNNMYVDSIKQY

The IC50 is the concentration needed to halve the response being measured. As to `Cc1cc(-c2[nH]c3ccc(C4CCN(C(=O)c5ccc6n(c5=O)CCC6)CC4)cc3c2C(C)C)cc(C)n1` [Example 144, 6-(4-(2-(2,6-dimethylpyridin-4-yl)-3-isopropyl-1H-indol-5-yl)piperidine-1-carbonyl)-2,3-dihydroindolizin-5(1H)-one], the IC50 at human TLR9 was over 50000 nM; at human TLR7 it was 20 nM; on human TLR8, 170 nM.
Take `Cc1cc(-c2[nH]c3ccc(C4CCN(C(=O)c5ccc6ccccn6c5=O)CC4)cc3c2C(C)C)cc(C)n1` [Example 145, 3-(4-(2-(2,6-dimethylpyridin-4-yl)-3-isopropyl-1H-indol-5-yl)piperidine-1-carbonyl)-4H-quinolizin-4-one]: the IC50 was over 50000 nM on human TLR9, 28.7 nM against human TLR7 and 347 nM at human TLR8.
Consider `Cc1cc(-c2[nH]c3ccc(C4CCN(C(=O)CCNc5ncccn5)CC4)cc3c2C(C)C)cc(C)n1` [Example 146, 1-(4-(2-(2,6-dimethylpyridin-4-yl)-3-isopropyl-1H-indol-5-yl)piperidin-1-yl)-3-(pyrimidin-2-ylamino) propan-1-one], for which the IC50 on human TLR9 was determined as 46800 nM; at human TLR7, 7.4 nM; at human TLR8 it was 85.9 nM.
The matching figures for `Cc1cc(-c2[nH]c3ccc(C4CCN(C(=O)CN(C)C5CCS(=O)(=O)C5)CC4)cc3c2C(C)C)cc(C)n1` (stereo not drawn) [Example 147, 1-(4-(2-(2,6-dimethylpyridin-4-yl)-3-isopropyl-1H-indol-5-yl)piperidin-1-yl)-2-((1,1-dioxidotetrahydrothiophen-3-yl)(methyl)amino)ethan-1-one]: 3840 nM, 6.7 nM and 42.3 nM.
The like results for `COCCN(C)CC(=O)N1CCC(c2ccc3[nH]c(-c4cc(C)nc(C)c4)c(C(C)C)c3c2)CC1` [Example 148, 1-(4-(2-(2,6-dimethylpyridin-4-yl)-3-isopropyl-1H-indol-5-yl)piperidin-1-yl)-2-((2-methoxyethyl)(methyl)amino)ethan-1-one] were, in that order, 900 nM, 2.2 nM and 9.8 nM.
For `Cc1cc(-c2[nH]c3ccc(C4CCN(C(=O)Cn5nnc(N6CCOCC6)n5)CC4)cc3c2C(C)C)cc(C)n1` [Example 149, 1-(4-(2-(2,6-dimethylpyridin-4-yl)-3-isopropyl-1H-indol-5-yl)piperidin-1-yl)-2-(5-morpholino-2H-tetrazol-2-yl)ethan-1-one], the results for the IC50 on human TLR9, at human TLR7 and at human TLR8 were 16100 nM, 21.6 nM and 143 nM, respectively.
In the case of `Cc1cc(-c2[nH]c3ccc(C4CCN(C(=O)CNS(C)(=O)=O)CC4)cc3c2C(C)C)cc(C)n1` [Example 150, N-(2-(4-(2-(2,6-dimethylpyridin-4-yl)-3-isopropyl-1H-indol-5-yl)piperidin-1-yl)-2-oxoethyl) methanesulfonamide], the values for the IC50 at human TLR9, at human TLR7 and on human TLR8 were 53100 nM, 7.3 nM and 71.6 nM, respectively.
The matching figures for `Cc1cc(-c2[nH]c3ccc(C4CCN(C(=O)CN5CC(=O)NC5=O)CC4)cc3c2C(C)C)cc(C)n1` [Example 151, 1-(2-(4-(2-(2,6-dimethylpyridin-4-yl)-3-isopropyl-1H-indol-5-yl)piperidin-1-yl)-2-oxoethyl)imidazolidine-2,4-dione]: 46700 nM, 15 nM and 83.8 nM.
For `Cc1cc(-c2[nH]c3ccc(C4CCN(C(=O)CN5CCCS5(=O)=O)CC4)cc3c2C(C)C)cc(C)n1` [Example 152, 1-(4-(2-(2,6-dimethylpyridin-4-yl)-3-isopropyl-1H-indol-5-yl)piperidin-1-yl)-2-(1,1-dioxidoisothiazolidin-2-yl)ethan-1-one], the IC50 at human TLR9 worked out at 30400 nM; at human TLR7 it was 5 nM; on human TLR8, 49.8 nM.
Take `Cc1cc(-c2[nH]c3ccc(C4CCN(C(=O)CN(C(C)C)C(C)C)CC4)cc3c2C(C)C)cc(C)n1` [Example 153, 2-(diisopropylamino)-1-(4-(2-(2,6-dimethylpyridin-4-yl)-3-isopropyl-1H-indol-5-yl)piperidin-1-yl)ethan-1-one]: the IC50 at human TLR9 came to 675 nM; on human TLR7 it was 9.9 nM; on human TLR8, 26 nM.
For `Cc1cc(-c2[nH]c3ccc(C4CCN(C(=O)CN5CCCC5=O)CC4)cc3c2C(C)C)cc(C)n1` [Example 154, 1-(2-(4-(2-(2,6-dimethylpyridin-4-yl)-3-isopropyl-1H-indol-5-yl)piperidin-1-yl)-2-oxoethyl)pyrrolidin-2-one], the IC50 at human TLR9 is over 50000 nM; on human TLR7, 5.9 nM; on human TLR8, 29.5 nM.
For the compound `Cc1cc(-c2[nH]c3ccc(C4CCN(C(=O)Cn5ncnn5)CC4)cc3c2C(C)C)cc(C)n1` [Example 155, 1-(4-(2-(2,6-dimethylpyridin-4-yl)-3-isopropyl-1H-indol-5-yl)piperidin-1-yl)-2-(2H-tetrazol-2-yl) ethan-1-one], the concentration for half-maximal inhibition (IC50) at human TLR9 turned out to be 26000 nM; against human TLR7, 2.7 nM; at human TLR8, 31.7 nM.
The matching figures for `Cc1cc(-c2[nH]c3ccc(C4CCN(C(=O)Cn5ccc(C(F)(F)F)n5)CC4)cc3c2C(C)C)cc(C)n1` [Example 156, 1-(4-(2-(2,6-dimethylpyridin-4-yl)-3-isopropyl-1H-indol-5-yl)piperidin-1-yl)-2-(3-(trifluoromethyl)-1H-pyrazol-1-yl)ethan-1-one]: 18600 nM, 29.9 nM and 187 nM.
Consider `Cc1cc(-c2[nH]c3ccc(C4CCN(C(=O)Cn5ccccc5=O)CC4)cc3c2C(C)C)cc(C)n1` [Example 157, 1-(2-(4-(2-(2,6-dimethylpyridin-4-yl)-3-isopropyl-1H-indol-5-yl)piperidin-1-yl)-2-oxoethyl)pyridin-2(1H)-one], for which the half-inhibitory concentration (IC50) was found to be 2500 nM at human TLR9, 16.5 nM against human TLR7 and 65.7 nM at human TLR8.
In the case of `Cc1cc(-c2[nH]c3ccc(C4CCN(C(=O)Cn5ccnn5)CC4)cc3c2C(C)C)cc(C)n1` [Example 158, 1-(4-(2-(2,6-dimethylpyridin-4-yl)-3-isopropyl-1H-indol-5-yl)piperidin-1-yl)-2-(1H-1,2,3-triazol-1-yl)ethan-1-one], the half-inhibitory concentration (IC50) at human TLR9 is 5720 nM; against human TLR7 it was 6 nM; at human TLR8, 85.4 nM.
On to `Cc1cc(-c2[nH]c3ccc(C4CCN(C(=O)Cn5nnnc5C)CC4)cc3c2C(C)C)cc(C)n1` [Example 159, 1-(4-(2-(2,6-dimethylpyridin-4-yl)-3-isopropyl-1H-indol-5-yl)piperidin-1-yl)-2-(5-methyl-1H-tetrazol-1-yl)ethan-1-one], for which the IC50 was 24400 nM at human TLR9, 4.8 nM on human TLR7 and 47.2 nM on human TLR8.
The like results for `Cc1cc(-c2[nH]c3ccc(C4CCN(C(=O)CN5C(=O)CN(C)C5=O)CC4)cc3c2C(C)C)cc(C)n1` [Example 160, 3-(2-(4-(2-(2,6-dimethylpyridin-4-yl)-3-isopropyl-1H-indol-5-yl)piperidin-1-yl)-2-oxoethyl)-1-methylimidazolidine-2,4-dione] were, in that order, over 50000 nM, 7.1 nM and 35.8 nM.
Regarding `Cc1cc(-c2[nH]c3ccc(C4CCN(C(=O)CN5CCOCC5=O)CC4)cc3c2C(C)C)cc(C)n1` [Example 161, 4-(2-(4-(2-(2,6-dimethylpyridin-4-yl)-3-isopropyl-1H-indol-5-yl)piperidin-1-yl)-2-oxoethyl)morpholin-3-one], the figures for the 50% inhibitory concentration (IC50) at human TLR9, against human TLR7 and on human TLR8 were over 50000 nM, 7.9 nM and 49.4 nM, respectively.
Regarding `Cc1cc(-c2[nH]c3ccc(C4CCN(C(=O)Cn5ccc(C6CC6)n5)CC4)cc3c2C(C)C)cc(C)n1` [Example 162, 2-(3-cyclopropyl-1H-pyrazol-1-yl)-1-(4-(2-(2,6-dimethylpyridin-4-yl)-3-isopropyl-1H-indol-5-yl)piperidin-1-yl)ethan-1-one], the IC50 at human TLR9 came out at 16200 nM; against human TLR7, 18.5 nM; at human TLR8 it was 129 nM.
`Cc1cc(-c2[nH]c3ccc(C4CCN(C(=O)CN5CCN(C)CC5)CC4)cc3c2C(C)C)cc(C)n1` [Example 163, 1-(4-(2-(2,6-dimethylpyridin-4-yl)-3-isopropyl-1H-indol-5-yl)piperidin-1-yl)-2-(4-methylpiperazin-1-yl)ethan-1-one]: the results for the IC50 on human TLR9, against human TLR7 and on human TLR8 were 778 nM, 0.9 nM and 8.4 nM, respectively.
For `Cc1cc(-c2[nH]c3ccc(C4CCN(C(=O)CN5CCOC5=O)CC4)cc3c2C(C)C)cc(C)n1` [Example 164, 3-(2-(4-(2-(2,6-dimethylpyridin-4-yl)-3-isopropyl-1H-indol-5-yl)piperidin-1-yl)-2-oxoethyl) oxazolidin-2-one], the IC50 on human TLR9 came to 14200 nM; at human TLR7, 4.6 nM; at human TLR8 it was 39.7 nM.
In the case of `Cc1cc(-c2[nH]c3ccc(C4CCN(C(=O)Cn5cnnn5)CC4)cc3c2C(C)C)cc(C)n1` [Example 165, 1-(4-(2-(2,6-dimethylpyridin-4-yl)-3-isopropyl-1H-indol-5-yl)piperidin-1-yl)-2-(1H-tetrazol-1-yl)ethan-1-one], the IC50 at human TLR9 was determined as 17200 nM; at human TLR7, 13.3 nM; at human TLR8, 66.1 nM.
On to `CC(=O)NCC(=O)N1CCC(c2ccc3[nH]c(-c4cc(C)nc(C)c4)c(C(C)C)c3c2)CC1` [Example 166, N-(2-(4-(2-(2,6-dimethylpyridin-4-yl)-3-isopropyl-1H-indol-5-yl)piperidin-1-yl)-2-oxoethyl)acetamide], for which the IC50 at human TLR9 is over 50000 nM; at human TLR7, 0.5 nM; at human TLR8, 79.8 nM.
Turning to `Cc1cc(-c2[nH]c3ccc(C4CCN(C(=O)CN5CCCCS5(=O)=O)CC4)cc3c2C(C)C)cc(C)n1` [Example 167, 1-(4-(2-(2,6-dimethylpyridin-4-yl)-3-isopropyl-1H-indol-5-yl)piperidin-1-yl)-2-(1,1-dioxido-1,2-thiazinan-2-yl)ethan-1-one], the IC50 at human TLR9 turned out to be 250 nM; against human TLR7, 5.9 nM; at human TLR8 it was 50.9 nM.
